Assay results from patent US5854067A, “Hexokinase inhibitors” (priority 1996, dated 1998).
Read-outs that look alike come from different tables or passages of the source.

What was measured:
[1] = molecular target: T1, native (wild type) islet glucokinase (Rattus norvegicus, UniProt P17712); assay: Radioisotopic glucose phosphorylating activity assay in extracts of transiently transfected 293 cells, with and without G6P; type: biochemical; conditions: 10 mM unlabeled G6P, 3 and 20 mM glucose, 293 cell extracts
T1 construct: Plasmids containing DNA encoding either intact islet glucokinase; expressed in transfected cells; host or cells: 293 human embryonic kidney cells, transient transfection, crude extract
T1 sequence (P17712 1-465): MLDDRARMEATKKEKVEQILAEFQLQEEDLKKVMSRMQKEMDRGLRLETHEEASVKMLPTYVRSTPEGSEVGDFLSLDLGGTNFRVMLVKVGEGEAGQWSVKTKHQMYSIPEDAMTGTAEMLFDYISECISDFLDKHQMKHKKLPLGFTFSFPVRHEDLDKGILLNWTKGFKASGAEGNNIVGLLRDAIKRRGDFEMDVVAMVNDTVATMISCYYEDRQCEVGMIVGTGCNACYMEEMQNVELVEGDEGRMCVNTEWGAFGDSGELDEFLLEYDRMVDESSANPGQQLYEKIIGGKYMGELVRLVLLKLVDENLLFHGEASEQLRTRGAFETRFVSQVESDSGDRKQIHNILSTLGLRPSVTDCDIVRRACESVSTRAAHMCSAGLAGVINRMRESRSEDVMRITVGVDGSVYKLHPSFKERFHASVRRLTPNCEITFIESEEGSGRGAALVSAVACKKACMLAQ
Method: Plasmids containing DNA encoding either intact islet glucokinase, hexokinase I or one of the two hexokinase/glucokinase chimeras were introduced into the human embryonic kidney cell line 293, using Ca2 PO4 co-precipitation. After incubation with the plasmid DNA, cells were cultured for an additional 48 hours.
Assays were performed at 3 and 20 mM glucose. At the lower glucose concentration, hexokinase activity is maximal while glucokinase activity is very low. […] The assay was also performed in the presence and absence of 10 mM unlabeled glucose-6-phosphate (G6P).

[2] = test system: Glucokinase (GK, hexokinase IV); conditions: Table 1, GK, cited from earlier work
[3] = test system: Hexokinases I, II, and III (HK I-III, low Km hexokinases); conditions: Table 1, HK I-III, cited from earlier work

O=P(O)(O)OC[C@H]1OC(O)[C@H](O)[C@@H](O)[C@@H]1O (some centres unmarked) [G-6-P, glucose-6-phosphate]
effect of glucose-6-phosphate on glucose phosphorylating activity [1]: no significant effect

Nc1ncnc2c1ncn2[C@@H]1O[C@H](COP(=O)(O)OP(=O)(O)OP(=O)(O)O)[C@@H](O)[C@H]1O [ATP]
Km ([2]; read-out: Km ATP): 500 µM | Km ([3]; read-out: Km ATP): 200 to 500 µM

OC[C@H]1OC(O)[C@H](O)[C@@H](O)[C@@H]1O (some centres unmarked) [glucose]
Km ([2]; read-out: Km glucose): 5000 to 12000 µM | Km ([3]; read-out: Km glucose): 20 to 130 µM
